Results reported in patent US20100227840A1, “USE OF 25-HYDROXY VITAMIN D3 TO IMPROVE MALE ANIMAL FERTILITY” (priority 2005, published 2010).

How the values were obtained:
boars = test: administration of 25-hydroxy vitamin D3 to boars: quality of semen; type: in vivo, pig; details: administered to boars
pigs = test: conception rate of pigs fertilized by boars administered 25-hydroxy vitamin D3; type: in vivo, pig; details: pigs fertilized by boars that were administered 25-hydroxy vitamin D3

Question: How did the “quality of boar semen” value (boars) turn out when `C=C1CC[C@H](O)C/C1=C/C=C1\CCC[C@]2(C)[C@@H]([C@H](C)CCCC(C)(C)O)CC[C@@H]12` [25-hydroxy vitamin D3] was run?
Answer: Its value is “improves the quality of boar semen”.

Question: What about the “conception rate in pigs” value (pigs) of the same molecule?
Answer: Its value is “increases the conception rate in pigs”.
